From patent US20220023337A1, “USE OF CHROMIUM HISTIDINATE FOR TREATMENT OF CARDIOMETABOLIC DISORDERS” (NUTRITION 21, LLC, priority 2007, published 2022)
Like-named read-outs stand apart in the source and are kept apart here.

Experiments:
[1] = rats, NSAID co-administered; cited from earlier work
rats = conditions: cited from earlier work
[2] = cited from earlier work
Hep G2 cells [3] = assay: Triglyceride secretion into culture media by HepG2 cells; assay type: cell-based, human; conditions: 0.2 μM, in the presence of insulin; p<0.05 vs control
Description: (§1) Hep G2 cells are liver cells derived from a human hepatoblastoma that is free of known hepatotropic viral agents. This cell line expresses a wide variety of liver-specific metabolic functions and is used as a model system to study cholesterol and triglyceride metabolism. The effects of chromium histidinate on triglyceride secretion and on media glucose levels, the HepG2 cell line was grown in culture media with or without insulin in the presence of 0, 0.2, 2, or 20 μM chromium histidinate. Media glucose levels and triglyceride levels were measured using standard protocols. Specifically, triglyceride levels were measured spectrophotometrically through hydrolysis by lipase and coupled enzyme reactions on the resulting glycerol. Glucose levels were measured spectrophotometrically using the glucose oxidase method, with a standard dilution curve serving to calibrate the measurements.

Hep G2 cells [4] = assay: Media glucose levels of HepG2 cell cultures; assay type: cell-based, human; conditions: 0.2 μM, in the absence of insulin; p<0.05 vs control
Description: as §1

normal rats = assay: Glucose and lipid metabolism in normal rats fed standard diet (groups 1 and 2); conditions: standard diet + chromium histidinate 12 weeks
Description: (§2) Wistar rats were reared at the temperature of (22±2° C.), humidity (55±5%) and a 12/12 h light/dark cycle. Pellet food and water were provided ad libitum.
(§3) Fat-fed/STZ treated rats provide an animal model for type 2 diabetes that simulates the human syndrome, and is suitable for the testing of antidiabetic compounds (See, e.g., Reed et al. (2000) Metabolism 49(11):1390-1394). Rats fed a high fat diet can be used as a model system for insulin resistance. Ten Wistar rats (55 days old) in each group were treated as follows:
Group 1: Control rats were fed standard diet (12% of calories as fat) for 12 weeks.
Group 2: Control rats were fed standard diet+chromium histidinate for 12 weeks.

insulin resistant rats = assay: Glucose and lipid metabolism in insulin resistant rats fed high fat diet (groups 3 and 4); assay type: in vivo, Wistar rats; conditions: approx. 110 mcg/kg body.d in water, 12 weeks
Description: as §2, §3
Group 3: Rats were fed high fat diet (40% of calories as fat) for 12 weeks.
Group 4: Rats were fed high-fat diet (40% of calories as fat) and chromium histidinate (approx. 110 mcg/kg body.d) was included into water for 12 weeks.

diabetic rats = assay: Glucose and lipid metabolism in high fat diet/streptozotocin diabetic rats (groups 5 and 6); assay type: in vivo, Wistar rats; conditions: high-fat diet + STZ 40 mg/kg i.p. rats, 110-mcg/kg body.d in water, 10 weeks
Description: as §2, §3
Group 5: Rats were fed high-fat diet (40% of calories as fat) for 2 weeks and then injected with streptozotocin (STZ, 40 mg/kg i.p.) for 12 weeks.
Group 6: Rats were fed high-fat diet (40% of calories as fat) for 2 weeks and then injected with streptozotocin (STZ, 40 mg/kg i.p.) and chromium histidinate was included into water at a concentration of 110-mcg/kg body.d for 10 weeks.
Before STZ injection glucose concentrations of rats were measured and compared to controls.

[5] = test system: subject having cardiometabolic syndrome; assay: Example 3: treatment of cardiometabolic syndrome; assay type: in vivo; conditions: between 50 μg and 5000 μg/day, orally
Description: A subject is identified as having cardiometabolic syndrome. The subject presents with one or more symptoms associated with cardiometabolic syndrome such as obesity, hypertension, dyslipidemia, impaired glucose tolerance, diabetes, an increase in C-reactive protein, and increase in TNFα, an increase in IL-6, an increase in IL-10, or an increase in oxidative stress.
The individual is administered between 50 μg and 5000 μg chromium histidinate complex/day, orally. The chromium histidinate is administered orally.

[6] = test system: subject with cardiovascular disease; assay: Example 8: treatment of cardiovascular disease; assay type: in vivo; conditions: about 50-5000 μg daily
Description: (§4) A subject is identified with cardiovascular disease. […] The subject is provided between about 50 μg and 5000 μg chromium histidinate daily. After a period of time, the subject's arteriosclerosis, atherosclerosis, peripheral vascular disease, or coronary heart disease improves.

[7] = test system: subject with cardiovascular disease; assay: Example 9: treatment of cardiovascular disease with combination therapy; assay type: in vivo; conditions: about 50-5000 μg daily plus a second therapeutic for cardiovascular disease
Description: as §4, with “daily. The subject is also provided a therapeutically effective amount of a second therapeutic for cardiovascular disease such as peripheral antiadrenergic therapy, antihypertensive drugs, vasodilators, inodilators, cardiac glycosides, antidysrhythmic drugs.” for “daily.”

[8] = test system: subject with a PPAR associated disorder; assay: Example 13: treatment of PPAR disorders; assay type: in vivo; conditions: about 50-5000 μg, orally, daily
Description: A subject is identified with a PPAR associated disorder. The subject has one or more of the following symptoms or conditions: rheumatoid arthritis, multiple sclerosis, inflammatory bowel disease, breast, colon, or prostate cancer, low levels of blood, lymph and/or cerebrospinal fluid apoE and/or apo A-1, elevated serum VLDL cholesterol levels, elevated serum LDL cholesterol levels, elevated triglyceride levels, elevated serum apo B levels, or the like. The subject is administered between about 50 μg and 5000 μg chromium histidinate, orally, daily. After a period of time, the subject's symptoms improve.

[9] = test system: subject having a dyslipidemia; assay: Example 14: treatment of dyslipidemia; assay type: in vivo; conditions: about 50-5000 μg daily, orally; one or more of the listed changes
Description: A subject is identified as having a dyslipidemia. […] The subject is administered between about 50 μg and 5000 μg chromium histidinate daily, orally.

[10] = test system: subject having insulin resistance; assay: Example 5: treatment of insulin resistance; assay type: in vivo; conditions: about 50-5000 μg daily, orally, in the form of a bar
Description: A subject is identified as having insulin resistance. […] The subject is administered between about 50 μg and 5000 μg chromium polyhistidinate daily, orally, in the form of a bar.

[11] = test system: subject with diabetes or hyperglycemia; assay: Example 11: treatment of glucose metabolism disorders; assay type: in vivo; conditions: about 50-5000 μg daily, orally
Description: A subject is identified with one or more glucose metabolism disorders such as diabetes or hyperglycemia. The subject is orally administered between about 50 μg and 5000 μg chromium polyhistidinate daily.

subject having impotence = assay: Example 6: treatment of sexual dysfunction; assay type: in vivo; conditions: about 50-5000 μg daily, orally
Description: A subject is identified as having impotence. The subject is orally administered between about 50 μg and 5000 μg chromium trihistidinate daily.

[12] = test system: subject with compromised renal function; assay: Example 10: treatment of renal disorders; assay type: in vivo; conditions: between 50 μg and 5000 μg daily
Description: A subject is identified with compromised renal function. […] The subject is administered an effective amount of chromium trihistidinate daily, e.g. between 50 μg and 5000 μg chromium trihistidinate daily. After a period of time, the subject's renal function improves.

**Q.** Which “chromium absorption following oral administration of CrCl3” value [1] does the source give for `CC(=O)Oc1ccccc1C(=O)O` [aspirin] here?
**A.** The value was “facilitated”.

**Q.** For `[Cl][Cr]([Cl])[Cl]` [chromium chloride], which toxic effects (rats; rats, levels several thousand times the upper limit of the ESADDI for chromium for humans (based on body weight)) is on record?
**A.** Its toxic effects is “without toxic effects”.

**Q.** Which pKa [2] does the source give for `N[C@@H](Cc1c[nH]cn1)C(=O)O` [histidine] here?
**A.** The pKa was ~6.0.

**Q.** What does the source list for chromium histidinate?
**A.** triacylglycerol (triglycerides secreted into culture media) (Hep G2 cells [3]): significantly decreased; glucose in the media (Hep G2 cells [4]): significant decrease; free fatty acid levels (normal rats): decreases; insulin levels (normal rats): increases; insulin sensitivity (normal rats): increases; serum chromium levels (normal rats): increases; serum glucose levels (normal rats): lowers; serum triglyceride levels (normal rats): decreases; total serum cholesterol levels (normal rats): decreases; body weight (insulin resistant rats): significantly lowers; cortisol levels (insulin resistant rats): decreases; free fatty acid levels (insulin resistant rats): decreases; insulin levels (insulin resistant rats): increases; insulin sensitivity (insulin resistant rats): increases; serum glucose levels (insulin resistant rats): lowers; total serum cholesterol levels (insulin resistant rats): decreases; triglyceride levels (insulin resistant rats): decreases; body weight (diabetic rats): significantly lowers; cortisol levels (diabetic rats): decreases; free fatty acid levels (diabetic rats): decreases; insulin levels (diabetic rats): increases; insulin sensitivity (diabetic rats): increases; serum glucose levels (diabetic rats): lowers; total serum cholesterol levels (diabetic rats): decreases; triglyceride levels (diabetic rats): decreases; symptoms associated with cardiometabolic syndrome [5]: reduction in one or more of the symptoms; arteriosclerosis, atherosclerosis, peripheral vascular disease, or coronary heart disease [6]: improves; arteriosclerosis, atherosclerosis, peripheral vascular disease, or coronary heart disease [7]: improves; symptoms of PPAR associated disorder [8]: improve; serum HDL cholesterol levels [9]: increased; serum LDL cholesterol levels [9]: decreased; serum triglyceride levels [9]: decreased; total serum cholesterol levels [9]: decreased

**Q.** Which toxic effects (rats; rat, in vivo) does the source give for chromium picolinate here?
**A.** Its toxic effects is “without toxic effects”.

**Q.** For chromium polyhistidinate, which hyperinsulinemia [10] is on record?
**A.** Its hyperinsulinemia is “decreased”.

**Q.** What about the insulin function [10] of the same molecule?
**A.** Its insulin function is “improved”.

**Q.** And the “fasting and/or post-prandial glucose levels” value [11]?
**A.** The value was “improvement”.

**Q.** Which sexual function (subject having impotence) does the source give for chromium trihistidinate here?
**A.** Its sexual function is “improved”.

**Q.** What about the renal function [12] of the same molecule?
**A.** The renal function was “improves”.
